Laboratory results as given in paper PMC11591356, “Immunomodulatory Effects of the Tobacco Defensin NaD1” (Antibiotics, 2024).
pIC50: −log10 of the molar value. Like-named read-outs stand apart in the source and are kept apart here. Ends that are not written are not given here.

How the values were obtained:
[1] = tested on: Candida albicans ATCC 18804; assay: Antifungal microdilution assay with or without LPS or zymosan; type: cell-based
Procedure: The antifungal assay was performed by the microdilution method using 96-well microplates as described. Briefly, C. albicans ATTC 18804 cells in stock were inoculated onto Sabouraud agar plates with 2% glucose and incubated for 24 h at 37 °C. After replating, cells were inoculated in Sabouraud broth and cultured at 37 °C for 2 h. The cell concentration was determined using a LUNA-II cell counter (Logos Biosystems, Anyang-si, Republic of Korea). Yeast cells in Sabouraud broth diluted to concentration of 4 × 10^4 cells/mL were mixed with equal volumes of serial two-fold dilutions of the peptides in water and the plates were incubated at 30 °C for 24 h. The final peptide concentrations in the wells were 25, 12.5, 6.25, 3.13, 1.56, 0.78 and 0.39 μM. Controls without peptides were also tested. […] Yeast growth was assessed using an inverted light microscope and also by measuring absorbance at 630 nm. The minimum inhibitory concentrations IC50 and MIC were defined as the lowest peptide concentrations inhibiting fungal growth by at least 50 and 100%, respectively. […] The MFCs corresponded to the minimal peptide concentration, in which no colony growth was observed.
To estimate the effects of LPS and zymosan on the antifungal activity of NaD1 and LL-37, these PAMPs were added in culture media at concentrations of 10, 40 and 100 μg/mL [39, 40]. All of the experiments were performed twice in triplicate.

[2] = tested on: human smooth muscles (CASMC); set-up: method as in PMID 28179997; conditions: read-out: IC50, MTT cell viability assay; cited from earlier work
[3] = tested on: THP-1-derived macrophages; assay: ELISA assay of cytokine production by THP-1-derived macrophages; type: cell-based, human
Procedure: THP-1 (ATCC TIB-202) cells were thawed and cultured in complete RPMI-1640, containing 10% FBS (Capricorn Scientific) and 1×AA solution in CO2-intubator. Monocytic THP-1 cells were differentiated into resting M0 macrophages by stimulation for 24 h with 100 ng/mL phorbol 12-myristate 13-acetate (PMA) in complete RPMI-1640. Then, the attached macrophage-like cells were washed out with culture medium without serum and incubated for another 48 h in PMA-free complete culture medium with 10% HS and 1×AA solution.
THP-1-derived macrophages were seeded into the wells of a 24-well plate at a density of 2.7 × 10^5 cells/well in complete RPMI-1640 with 10% HS and 1×AA solution. Then, 24 h later, the culture medium was replaced by the fresh complete RPMI-1640 containing lipopolysaccharide from Escherichia coli 0111:B4 (LPS, Sigma, St. Louis, MO, USA) or zymosan from the cell wall of Saccharomyces cerevisiae (Serva, Heidelberg, Germany) at concentrations of 1 or 10 μg/mL, respectively; antimicrobial peptides NaD1, Psd1, LL-37 or HBD2 at concentrations of 2 or 0.2 µM; and combinations of antimicrobial peptides with LPS or zymosan at the same concentrations. Insoluble zymosan was resuspended in sterile water and sonicated twice for 30 s; after that, the stock solution was heated to 80 °C for 20 min. Peptides were added 2 h before stimulation with LPS and zymosan. After that, PAMPs solutions were added and the cells were cultured for 24 h. Complete RPMI-1640 only was used in the control wells. Culture supernatants were collected and stored at −70 °C prior to the cytokines’ assessment.
The production of pro- and anti-inflammatory cytokines IL-1β, IL-6, TNF-α and IL-10 by stimulated and non-stimulated THP-1-derived macrophages were estimated by using ELISA kits (Vector-Best, Koltsovo, Russia). Briefly, 96-well plates with adsorbed monoclonal antibodies to the corresponding cytokine were used. Undiluted or diluted 5, 20 or 80 times in the case of IL-10, TNF-α and IL-1β or IL-6, respectively, culture supernatants from the wells of 24-well plates were taken for analysis. Biotinylated polyclonal antibodies to cytokines, streptavidin conjugated to HRP and TMB substrate were further used for the detection of immune complexes. A panel of calibration solutions containing different concentrations of cytokines was used in each experiment. Experiments were performed using two biological and two technical repeats. The release of the cytokines in the control and experimental samples was compared with an unpaired two-sample t-test using GraphPad Prism v.8.0.1 (GraphPad Software, Inc., San Diego, CA, USA). The p values ≤ 0.05 were considered significant.

[4] = tested on: Caco-2 cells not in a monolayer; conditions: 24 h, resazurin
Procedure: The cytotoxic effects of the tobacco defensin NaD1 towards PBMCs or Caco-2 cells were investigated in 96-well plates using the resazurin method as previously described. In brief, 4 × 10^5 per well Caco-2 cells not in a monolayer as well as Caco-2 cells in a monolayer in DMEM/F12 (1:1) medium with 10% FBS or 2 × 10^6 PBMCs per well in RPMI-1640 also with 10% FBS were incubated with serial dilutions of NaD1 at final concentrations from 0.39 to 50 μM or from 2.1 to 180 μM for 24 h. After that, resazurin (Sigma, St. Louis, MO, USA) was added at a final concentration of 70 µM and the plates were incubated overnight (16–18 h). Untreated cells and cells treated by non-ionogenic detergent Triton X-100 were used as negative and positive controls, respectively. […] The cell viability was estimated by resorufin fluorescence registered at […] via the following equation: cell viability (%) = (Fsample/Fcontrol) × 100%. Experiment was carried out twice in duplicate.

[5] = peptide 2 µM 2 h before LPS 1 μg/mL, 24 h, vs LPS alone
[6] = peptide 2 µM 2 h before zymosan 10 μg/mL, 24 h, vs zymosan alone

With “NaD1: Recombinant tobacco floral defensin NaD1 (UNIPROT Q8GTM0), obtained by heterologous expression in E. coli; FITC-labeled in the permeability assay (RECKTESNTFPGICITKPPCRKACISEKFTDGHCSKILRRCLCTKPC; cysteine pairing not given here; also: FITC label; UniProt Q8GTM0 26-72, looked up)” the pIC50 ([1]; 10 μg/mL LPS) was 5.20 to 5.51, the MFC ([1]; 10 μg/mL LPS) was 12.5 µM and the MIC ([1]; 10 μg/mL LPS) was 6.25 µM. For the same substance, the pIC50 ([1]; 10 μg/mL Zymosan) was 5.20 to 5.51, the MFC ([1]; 10 μg/mL Zymosan) was 12.5 µM and the MIC ([1]; 10 μg/mL Zymosan) was 6.25 µM. The pIC50 ([1]; 40 μg/mL LPS) was 5.20 to 5.51, the MFC ([1]; 40 μg/mL LPS) was 12.5 µM and the MIC ([1]; 40 μg/mL LPS) was 6.25 µM. It also gave a pIC50 ([1]; 40 μg/mL Zymosan) of 5.20 to 5.51, an MFC ([1]; 40 μg/mL Zymosan) of 25 µM and an MIC ([1]; 40 μg/mL Zymosan) of 6.25 µM. It also gave a pIC50 ([1]; 100 μg/mL LPS) of 5.20 to 5.51, an MFC ([1]; 100 μg/mL LPS) of 12.5 µM and an MIC ([1]; 100 μg/mL LPS) of 12.5 µM. For the same substance, the pIC50 ([1]; 100 μg/mL Zymosan) was 5.20 to 5.51, the MFC ([1]; 100 μg/mL Zymosan) was 25 µM and the MIC ([1]; 100 μg/mL Zymosan) was 6.25 µM. For the same substance, the MIC ([1]; without PAMP, Sabouraud broth, 30 °C, 24 h, 100% growth inhibition) was 6.25 µM, the pIC50 ([1]; without PAMP, Sabouraud broth, 30 °C, 24 h, lowest concentration inhibiting growth by at least 50%, twice in triplicate) was 5.20 to 5.51 and the MFC ([1]; without PAMP, plating on Sabouraud agar, 37 °C, 24 h, no colony growth) was 12.5 µM. The pIC50 [2] was ~5.00, the “IL-10 production by M0 and M1 macrophages” value ([3]; elevation from 150 (without NaD1)) was 180 pg/mL and the “IL-1β production by M0 and M1 macrophages” value ([3]; increase from 4500 (without NaD1)) was 6500 pg/mL. For the same substance, the “LPS-induced IL-1β production” value [3, 5] was “increased the LPS-induced production of IL-1β”, the “LPS-induced IL-10 production” value [3, 5] was “increased the LPS-induced production of IL-10” and the “LPS-induced TNF-α secretion” value [3, 5] was “reduced the LPS-induced secretion of TNF-α”. For the same substance, the “IL-1β production in the presence of zymosan” value [3, 6] was “induced the production of IL-1β (p <0.0001) more strongly than without this PAMP”, the “IL-10 production in the presence of zymosan” value [3, 6] was “increased the production of IL-10 in the presence of zymosan” and the “IL-10 production, unstimulated macrophages” value ([3]; peptide 2 µM alone, vs unstimulated control) was “induced the production of IL-10”. The “IL-1β production, unstimulated macrophages” value ([3]; peptide 2 µM alone, vs unstimulated control, two biological and two technical repeats) was “significantly increased IL-1β level”, the CC50 ([4]; calculated) was 61.8 µM and the Cell viability ([4]; peptide 53.3 µM) was “approximately 62%”. For the same substance, the Cell viability ([4]; peptide 180 μM) was 8%.
